The test system of one assay is MKN-45. Briefly: Cell viability / antiproliferative assay (WST-8), MKN-45.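 Further: MKN-45 is a human gastric cancer line overexpressing c-MET, growth inhibition read as WST-8 formazan absorbance at 450 nm after 2 h dye incubation.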 As to conditions: read-out: MKN-45 IC50. A general note: Tetrazolium dyes change colour on reduction, which living cells bring about.
The target of a further assay is c-MET (Homo sapiens, UniProt P08581). Briefly: c-MET protein degradation (Simple Western), MKN-45. Type of assay: cell-based. Further details: assess the resolution of the compound of the present invention for c-MET expressed in cells; endogenous in cells; host or cells: MKN45 (human gastric cancer). The note with it: c-MET overexpressing gastric cancer cell line MKN-45, treated 24 hours. The protocol:
In order to assess the resolution of the compound of the present invention for c-MET expressed in cells, cells were dispensed in a 12-well plate at a concentration of 2 × 10^5 cells/well, and then gastric cancer cell lines were treated with samples for 24 hours and lung cancer cell lines were treated for 48 hours. Cell lysates were collected using a scraper on ice, centrifuged at 4°C15,000 rpm for 30 min to obtain a protein-containing supernatant. Protein expression was then measured using the Simple Western Automated Western Blot System Abby instrument using 3 µg of protein for each sample. SDS and heat-induced denaturation proteins were separated by molecular weight, attached to capillary, reacted with anti-c-MET or anti-GAPDH antibodies, which are primary antibodies, and then reacted with HRP-conjugated secondary antibodies, and analyzed the protein expression signal with compass software. Protein expression was normalized based on the expression value of GAPDH, and protein development in each sample was measured as a percentage (%) based on 100% of samples treated with 0.1% DMSO carriers, and DC50 (concentration of a compound where 50% protein inhibition is achieved) was calculated from the change in protein expression amount due to compound treatment.

The mark [1] stands for this setting: MKN-45 cells, 72 hours, WST-8, Table 1.

Read-outs that look alike come from different tables or passages of the source.

In general, IC50 refers to the point on the concentration scale where inhibition reaches its midpoint. In general, DC50 refers to the midpoint of the concentration-degradation curve.

c-MET, sequence (P08581 25-1390): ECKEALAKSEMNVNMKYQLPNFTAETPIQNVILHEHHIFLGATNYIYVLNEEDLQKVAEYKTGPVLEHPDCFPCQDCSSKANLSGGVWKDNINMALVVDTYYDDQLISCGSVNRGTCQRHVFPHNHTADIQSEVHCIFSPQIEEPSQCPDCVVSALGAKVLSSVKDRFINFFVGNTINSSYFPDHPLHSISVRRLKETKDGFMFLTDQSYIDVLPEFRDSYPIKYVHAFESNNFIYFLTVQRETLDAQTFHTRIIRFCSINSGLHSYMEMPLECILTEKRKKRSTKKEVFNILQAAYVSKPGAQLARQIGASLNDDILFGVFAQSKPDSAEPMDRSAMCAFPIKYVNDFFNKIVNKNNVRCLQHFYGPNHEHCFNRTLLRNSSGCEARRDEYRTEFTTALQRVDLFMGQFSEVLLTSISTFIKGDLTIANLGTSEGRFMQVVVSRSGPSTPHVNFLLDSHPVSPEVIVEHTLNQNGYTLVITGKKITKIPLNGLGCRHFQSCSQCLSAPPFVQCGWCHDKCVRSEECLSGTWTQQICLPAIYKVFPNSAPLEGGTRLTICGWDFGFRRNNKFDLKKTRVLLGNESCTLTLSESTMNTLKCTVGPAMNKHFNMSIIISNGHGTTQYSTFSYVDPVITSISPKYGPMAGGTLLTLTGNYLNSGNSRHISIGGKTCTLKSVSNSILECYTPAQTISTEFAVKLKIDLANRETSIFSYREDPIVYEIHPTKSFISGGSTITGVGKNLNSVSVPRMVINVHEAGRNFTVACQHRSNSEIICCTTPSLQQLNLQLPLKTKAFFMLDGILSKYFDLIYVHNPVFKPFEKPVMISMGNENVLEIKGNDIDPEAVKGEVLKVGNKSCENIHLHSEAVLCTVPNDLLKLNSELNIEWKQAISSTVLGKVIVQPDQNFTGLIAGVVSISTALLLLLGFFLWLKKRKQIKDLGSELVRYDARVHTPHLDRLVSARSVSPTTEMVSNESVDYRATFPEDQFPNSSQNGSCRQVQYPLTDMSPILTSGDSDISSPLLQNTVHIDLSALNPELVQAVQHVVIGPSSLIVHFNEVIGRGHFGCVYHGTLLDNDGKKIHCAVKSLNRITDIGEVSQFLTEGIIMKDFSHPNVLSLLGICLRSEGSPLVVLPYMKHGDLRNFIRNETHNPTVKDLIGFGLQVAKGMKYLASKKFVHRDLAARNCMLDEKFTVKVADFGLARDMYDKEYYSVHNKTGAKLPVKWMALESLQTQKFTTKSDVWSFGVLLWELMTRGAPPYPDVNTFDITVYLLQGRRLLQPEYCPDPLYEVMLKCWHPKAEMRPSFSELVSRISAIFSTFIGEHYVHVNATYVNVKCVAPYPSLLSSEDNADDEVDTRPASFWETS

As to `Cc1nn(C2CCC(=O)NC2=O)c(=O)c2cc(N3CCN(CC4CCN(C(=O)CN5CCC(COc6cnc(-c7cccc(Cn8nc(-c9cccc(C#N)c9)ccc8=O)c7)nc6)CC5)CC4)CC3)ccc12` (centres unmarked) [ICT-0001195], the IC50 in the assay with MKN-45 (Homo sapiens, MKN-45, 72 h) is less than 100 nM. The DC50 on c-MET (Table 2) is less than 100 nM.
As for `Cc1nn(C2CCC(=O)NC2=O)c(=O)c2cc(N3CCO[C@H](CN4CCN(CC(=O)N5CCC(COc6cnc(-c7cccc(Cn8nc(-c9cccc(C#N)c9)ccc8=O)c7)nc6)CC5)CC4)C3)ccc12` (stereo partly drawn) [ICT-0001271, 3-(1-(3-(5-((1-(2-(4-(((2R)-4-(3-(2,6-dioxopiperidin-3-yl)-1-methyl-4-oxo-3,4-dihydrophthalazine-6-yl)morpholine-2-il)methyl)piperazine-1-il)acetyl)piperidine-4-il)methoxy)pyrimidine-2-yl)benzyl)6-oxo-1,6-dihydropyridazine-3-yl)benzonitrile], the IC50 in the assay with MKN-45 (MKN-45 cells, 72 hours, WST-8, Table 2) is less than 100 nM. Besides, the DC50 on c-MET (Table 2) is less than 100 nM.
Take `Cn1cc(-c2cnc3c(nnn3C[C@@H]3CN(c4ncc(-c5ccc(CN6CCN(C(=O)CCOCCOCCOCCOCCOCCOCCNc7cccc8cnn(C9CCC(=O)NC9=O)c(=O)c78)CC6)cc5)cn4)CCO3)n2)cn1` (some centres unmarked) [ICT-0000968]: in the assay on MKN-45 (setting [1]), the 50% inhibitory concentration (IC50) fell in the range of 100 to 1000 nM.
On to `Cc1nn(C2CCC(=O)NC2=O)c(=O)c2ccc(N3CCN(CC4CN(C(=O)CN5CCC(COc6cnc(-c7cccc(Cn8nc(-c9cccc(C#N)c9)ccc8=O)c7)nc6)CC5)C4)CC3)cc12` (centres unmarked) [ICT-0001235], for which, in the assay with MKN-45 (Homo sapiens, MKN-45, 72 h), the IC50 was less than 100 nM. In addition, on c-MET (Table 2), the half-maximal degradation concentration (DC50) is less than 100 nM.
Turning to `N#Cc1cccc(-c2ccc(=O)n(Cc3cccc(-c4ncc(OCC5CCN(C(=O)CCCCCNc6ccc7c(=O)n(C8CCC(=O)NC8=O)ncc7c6)CC5)cn4)c3)n2)c1` (centres unmarked) [ICT-0000984, 3-(1-{[3-(5-{[1-(6-{[2-(2,6-dioxopiperidin-3-yl)-1-oxo-1,2-dihydropthalazine-6-yl]amino}hexanoyl)piperidine-4-il]methoxy}pyrimidine-2-yl)phenyl]methyl}-6-oxo-1,6-dihydropyridazine-3-yl)benzonitrile], the IC50 in the assay with MKN-45 (Homo sapiens, MKN-45, 72 h) is less than 100 nM.
On to `Cc1nn(C2CCC(=O)NC2=O)c(=O)c2ccc(N3CCC(NC4CCN(CC(=O)N5CCC(COc6cnc(-c7cccc(Cn8nc(-c9cccc(C#N)c9)ccc8=O)c7)nc6)CC5)CC4)CC3)cc12` (centres unmarked) [ICT-0001219], for which, in the assay with MKN-45 (Homo sapiens, MKN-45, 72 h), the IC50 was less than 100 nM. On c-MET (Table 2), this compound registered a DC50 of less than 100 nM.
As to `Cn1cc(-c2cnc3c(nnn3C[C@@H]3CN(c4ncc(-c5ccc(CN6CCN(C(=O)CCOCCOCCOCCOCCNc7cccc8cnn(C9CCC(=O)NC9=O)c(=O)c78)CC6)cc5)cn4)CCO3)n2)cn1` (stereo partly drawn) [ICT-0000946, 3-[8-(16-{4-[(4-{2-[(2S)-2-{[5-(1-methyl-1H-pyrazole-4-yl)-1H-[1,2,3]triazolo[4,5-b]pyrazine-1-yl]methyl}morpholine-4-day]pyrimidine-5-yl}phenyl)methyl]piperazine-1-yl}-16-oxo-4,7,10,13-tetraoxa-1-azahexadecane-1-yl)-1-oxo-1,2-dihydroptalazine-2-yl]piperidine-2,6-dione], in the assay with MKN-45 (setting [1]), the IC50 was in the range of 100 to 1000 nM.
For `Cc1nn(C2CCC(=O)NC2=O)c(=O)c2ccc(N3CCN(C4CCN(C(=O)CN5CCC(COc6cnc(-c7cccc(Cn8nc(-c9cccc(C#N)c9)ccc8=O)c7)nc6)CC5)CC4)CC3)cc12` (centres unmarked) [ICT-0001237], in the assay with MKN-45 (Homo sapiens, MKN-45, 72 h), the concentration for half-maximal inhibition (IC50) is less than 100 nM. On c-MET (Table 2), this compound had a DC50 of less than 100 nM.
For the compound `Cc1nn(C2CCC(=O)NC2=O)c(=O)c2cc(N3CCN(CCCCC(=O)N4CCC(COc5cnc(-c6cccc(Cn7nc(-c8cccc(C#N)c8)ccc7=O)c6)nc5)CC4)CC3)ccc12` (centres unmarked) [ICT-0001217], the IC50 in the assay with MKN-45 (Homo sapiens, MKN-45, 72 h) is less than 100 nM. Further, at c-MET (Table 2), the DC50 is less than 100 nM.
For `Cn1cc(-c2cnc3c(nnn3C[C@@H]3CN(c4ncc(-c5ccc(CN6CCN(C(=O)COCCOCCOCCNc7ccc8c(=O)n(C9CCC(=O)NC9=O)ncc8c7)CC6)cc5)cn4)CCO3)n2)cn1` (stereo partly drawn) [ICT-0000938, 3-[6-(12-{4-[(4-{2-[(2S)-2-{[5-(1-methyl-1H-pyrazole-4-yl)-1H-[1,2,3]triazolo[4,5-b]pyrazine-1-yl]methyl}morpholine-4-day]pyrimidine-5-yl}phenyl)methyl]piperazine-1-yl}-12-oxo-4,7,10-trioxa-1-azadodecane-1-yl)-1-oxo-1,2-dihydroptalazine-2-yl]piperidine-2,6-dione], the IC50 in the assay with MKN-45 (Homo sapiens, MKN-45, 72 h) was in the range of 100 to 1000 nM. On c-MET (Table 1), this compound returned a half-maximal degradation concentration (DC50) of more than 1000 nM.
Turning to `N#Cc1cccc(-c2ccc(=O)n(Cc3cccc(-c4ncc(OCC5CCN(C(=O)COCCOCCOCCOCCNc6ccc7c(=O)n(C8CCC(=O)NC8=O)ncc7c6)CC5)cn4)c3)n2)c1` (centres unmarked) [ICT-0000988, 3-(1-{[3-(5-{[1-(14-{[2-(2,6-dioxopiperidin-3-yl)-1-oxo-1,2-dihydroptalazine-6-yl]amino}-3,6,9,12-tetradecanoyl)piperidin-4-yl]methoxy}pyrimidine-2-yl)phenyl]methyl}-6-oxo-1,6-dihydropyridazine-3-yl)benzonitrile], the IC50 with MKN-45 (Homo sapiens, MKN-45, 72 h) fell in the range of 100 to 1000 nM. The DC50 at c-MET (Table 2) is less than 100 nM.
On to `Cc1nn(C2CCC(=O)NC2=O)c(=O)c2ccc(N3CCN(c4ccc(NCC(=O)N5CCC(COc6cnc(-c7cccc(Cn8nc(-c9cccc(C#N)c9)ccc8=O)c7)nc6)CC5)cc4)CC3)cc12` (centres unmarked) [ICT-0001240, 3-(1-(3-(5-((1-((4-(4-(2-(2,6-dioxopiperidin-3-yl)-4-methyl-1-oxo-1,2-dihydropthalazine-6-yl)piperazine-1-yl)phenyl)glycyl)piperidine-4-il)methoxy)pyrimidine-2-yl)benzyl)6-oxo-1,6-dihydropyridazine-3-yl)benzonitrile], for which the IC50 with MKN-45 (Homo sapiens, MKN-45, 72 h) was less than 100 nM.
For the compound `Cn1cc(-c2cnc3c(nnn3C[C@@H]3CN(c4ncc(-c5ccc(CN6CCN(C(=O)COCCOCCOCCNc7cccc8cnn(C9CCC(=O)NC9=O)c(=O)c78)CC6)cc5)cn4)CCO3)n2)cn1` (stereo partly drawn) [ICT-0000942, 3-[8-(12-{4-[(4-{2-[(2S)-2-{[5-(1-methyl-1H-pyrazole-4-yl)-1H-[1,2,3]triazolo[4,5-b]pyrazine-1-yl]methyl}morpholine-4-day]pyrimidine-5-yl}phenyl)methyl]piperazine-1-il}-12-oxo-4,7,10-trioxa-1-azadodecane-1-yl)-1-oxo-1,2-dihydroptalazine-2-yl]piperidine-2,6-dione], in the assay on MKN-45 (setting [1]), the IC50 is less than 100 nM.
For `Cc1nn(C2CCC(=O)NC2=O)c(=O)c2ccc(NCCCC(=O)N3CCC(COc4cnc(-c5cccc(Cn6nc(-c7cccc(C#N)c7)ccc6=O)c5)nc4)CC3)cc12` (centres unmarked) [ICT-0000989], in the assay on MKN-45 (Homo sapiens, MKN-45, 72 h), the IC50 is less than 100 nM.
`Cc1nn(C2CCC(=O)NC2=O)c(=O)c2cc(N3CCN(C(=O)CN4CCC(COc5cnc(-c6cccc(Cn7nc(-c8cccc(C#N)c8)ccc7=O)c6)nc5)CC4)CC3)ccc12` (centres unmarked) [ICT-0001115, 3-(1-(3-(5-((1-(2-(4-(3-(2,6-dioxopiperidin-3-yl)-1-methyl-4-oxo-3,4-dihydropetalazine-6-yl)piperazine-1-yl)2-oxoethyl)piperidine-4-il)methoxy)pyrimidine-2-yl)benzyl)6-oxo-1,6-dihydropyridazine-3-yl)benzonitrile] returned a DC50 on c-MET (Table 2) of less than 100 nM.
Same read-out and setting: with `Cc1nn(C2CCC(=O)NC2=O)c(=O)c2ccc(N3CCN(CC4CCN(CC(=O)N5CCC(COc6cnc(-c7cccc(Cn8nc(-c9cccc(C#N)c9)ccc8=O)c7)nc6)CC5)CC4)CC3)cc12` (centres unmarked) [ICT-0001256] the figure was less than 100 nM.
With `Cn1cc(-c2cnc3c(nnn3C[C@@H]3CN(c4ncc(-c5ccc(CN6CCN(C(=O)CCOCCOCCNc7cccc8cnn(C9CCC(=O)NC9=O)c(=O)c78)CC6)cc5)cn4)CCO3)n2)cn1` (some centres unmarked) [ICT-0000940], the IC50 with MKN-45 (Homo sapiens, MKN-45, 72 h) was in the range of 100 to 1000 nM.
Still for that read-out and setting: the value for `N#Cc1cccc(-c2ccc(=O)n(Cc3cccc(-c4ncc(OCC5CCN(C(=O)CCOCCOCCOCCOCCNc6cccc7cnn(C8CCC(=O)NC8=O)c(=O)c67)CC5)cn4)c3)n2)c1` (centres unmarked) [ICT-0000907] was less than 100 nM.
As for `Cn1cc(-c2cnc3c(nnn3C[C@@H]3CN(c4ncc(-c5ccc(CN6CCN(C(=O)CCCCCNc7cccc8cnn(C9CCC(=O)NC9=O)c(=O)c78)CC6)cc5)cn4)CCO3)n2)cn1` (stereo partly drawn) [ICT-0000970, 3-(8-((6-(4-(4-(2-((S)-2-((5-(1-methyl-1H-pyrazole-4-yl)-1H-[1,2,3]triazolo[4,5-b]pyrazine-1-yl)methyl)morpholino)pyrimidine-5-yl)benzyl)piperazine-1-yl)6-oxohexyl)amino)1-oxopthalazine-2(1H)-yl)piperidine-2,6-dione], the half-inhibitory concentration (IC50) with MKN-45 (setting [1]) was less than 100 nM.
For `Cn1cc(-c2cnc3c(nnn3C[C@@H]3CN(c4ncc(-c5ccc(CN6CCN(C(=O)COCCOCCOCCOCCOCCNc7cccc8cnn(C9CCC(=O)NC9=O)c(=O)c78)CC6)cc5)cn4)CCO3)n2)cn1` (stereo partly drawn) [ICT-0000967, 3-(8-((17-(4-(4-(2-((S)-2-((5-(1-methyl-1H-pyrazole-4-yl)-1H-[1,2,3]triazolo[4,5-b]pyrazine-1-yl)methyl)morpholino)pyrimidine-5-yl)benzyl)piperazine-1-yl)17-oxo-3,6,9,12,15-pentaheptacel)amino)-1-oxopthalazine-2(1H)-yl)piperidine-2,6-dione], the concentration for half-maximal inhibition (IC50) in the assay on MKN-45 (setting [1]) lay in the range of 100 to 1000 nM.
In turn, `Cc1nn(C2CCC(=O)NC2=O)c(=O)c2cc(N3CCC(C(=O)NCCCNC(=O)CN4CCC(COc5cnc(-c6cccc(Cn7nc(-c8cccc(C#N)c8)ccc7=O)c6)nc5)CC4)CC3)ccc12` (centres unmarked) [ICT-0001238] displayed a DC50 at c-MET (Table 2) of more than 1000 nM.

The values above are taken from patent EP4624466A1, “DEGRADER FOR DECOMPOSING CMET PROTEIN, AND PHARMACEUTICAL COMPOSITION COMPRISING SAME” (Innocure Therapeutics, Inc., priority 2022, dated 2024).
